Test results reported in ChEMBL document CHEMBL4765276, “Synthesis of multimeric pyrrolidine iminosugar inhibitors of human β-glucocerebrosidase and α-galactosidase A: First example of a multivalent enzyme activity enhancer for Fabry disease” (Eur J Med Chem, 2020).

Legend:
[1] = molecular target: T1, Alpha-galactosidase A (Homo sapiens) (UniProt P06280); assay: Inhibition of human recombinant lysosomal alpha-GalA at 1 mM using 4-methylumbelliferyl-[…] as substrate preincubated for 45 mins followed by substrate addition and measured after 30 mins by fluorescence spectrophotometric assay relative to control; details: time 75.0 min
T1 sequence (whole entry): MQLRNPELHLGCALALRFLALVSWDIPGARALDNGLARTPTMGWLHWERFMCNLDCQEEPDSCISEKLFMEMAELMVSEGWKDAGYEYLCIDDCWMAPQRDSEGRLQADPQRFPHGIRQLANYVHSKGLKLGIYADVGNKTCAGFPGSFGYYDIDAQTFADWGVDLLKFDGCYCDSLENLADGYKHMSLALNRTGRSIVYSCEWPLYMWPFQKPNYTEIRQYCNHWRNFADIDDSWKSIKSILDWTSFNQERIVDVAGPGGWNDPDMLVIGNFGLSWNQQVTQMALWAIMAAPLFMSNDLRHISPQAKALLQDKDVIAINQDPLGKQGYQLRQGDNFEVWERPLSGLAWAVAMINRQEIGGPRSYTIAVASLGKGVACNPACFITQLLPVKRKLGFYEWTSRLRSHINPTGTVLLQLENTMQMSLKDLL

[2] = molecular target: T2, Lysosomal acid glucosylceramidase (Homo sapiens) (UniProt P04062); assay: Inhibition of human recombinant lysosomal GCase at 1 mM using 4-methylumbelliferyl-beta-D-glucopyranoside as substrate preincubated for 45 mins followed by substrate addition and measured after 30 mins by fluorescence spectrophotometric assay relative to control; details: time 75.0 min
T2 sequence (whole entry): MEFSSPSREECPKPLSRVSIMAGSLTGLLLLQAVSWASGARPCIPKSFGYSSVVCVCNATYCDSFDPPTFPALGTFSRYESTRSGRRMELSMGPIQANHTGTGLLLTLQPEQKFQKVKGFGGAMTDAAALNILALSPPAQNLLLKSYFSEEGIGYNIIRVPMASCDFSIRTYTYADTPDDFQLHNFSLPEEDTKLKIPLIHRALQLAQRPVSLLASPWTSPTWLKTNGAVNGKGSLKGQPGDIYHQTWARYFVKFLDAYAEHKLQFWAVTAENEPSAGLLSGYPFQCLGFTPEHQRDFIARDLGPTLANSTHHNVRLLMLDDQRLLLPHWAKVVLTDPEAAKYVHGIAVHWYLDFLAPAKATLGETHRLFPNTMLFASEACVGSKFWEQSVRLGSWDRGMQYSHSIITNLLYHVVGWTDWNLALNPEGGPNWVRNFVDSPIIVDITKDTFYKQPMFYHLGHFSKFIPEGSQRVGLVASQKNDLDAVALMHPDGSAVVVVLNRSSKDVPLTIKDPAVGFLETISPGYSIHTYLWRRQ

Alpha-galactosidase A = molecular target: T3, Alpha-galactosidase A (Homo sapiens, UniProt P06280); assay: Inhibition of human recombinant lysosomal alpha-GalA using 4-methylumbelliferyl-[…] as substrate preincubated for 45 mins followed by substrate addition and measured after 30 mins by fluorescence spectrophotometric assay
T3 sequence (P06280 whole entry): T1 sequence (whole entry)

Row | inhibition [1] | inhibition [2] | IC50 (Alpha-galactosidase A) | SMILES
1 | < 50% | < 50% | – | O=C(NC(COCc1cn(CCCc2cn(C[C@@H]3NC[C@@H](O)[C@H]3O)nn2)nn1)(COCc1cn(CCCc2cn(C[C@@H]3NC[C@@H](O)[C@H]3O)nn2)nn1)COCc1cn(CCCc2cn(C[C@@H]3NC[C@@H](O)[C@H]3O)nn2)nn1)c1cc(C(=O)NC(COCc2cn(CCCc3cn(C[C@@H]4NC[C@@H](O)[C@H]4O)nn3)nn2)(COCc2cn(CCCc3cn(C[C@@H]4NC[C@@H](O)[C@H]4O)nn3)nn2)COCc2cn(CCCc3cn(C[C@@H]4NC[C@@H](O)[C@H]4O)nn3)nn2)cc(C(=O)NC(COCc2cn(CCCc3cn(C[C@@H]4NC[C@@H](O)[C@H]4O)nn3)nn2)(COCc2cn(CCCc3cn(C[C@@H]4NC[C@@H](O)[C@H]4O)nn3)nn2)COCc2cn(CCCc3cn(C[C@@H]4NC[C@@H](O)[C@H]4O)nn3)nn2)c1
2 | – | < 50% | 286 µM | O=C(NC(COCc1cn(C[C@H]2NC[C@@H](O)[C@H]2O)nn1)(COCc1cn(C[C@H]2NC[C@@H](O)[C@H]2O)nn1)COCc1cn(C[C@H]2NC[C@@H](O)[C@H]2O)nn1)c1cc(C(=O)NC(COCc2cn(C[C@H]3NC[C@@H](O)[C@H]3O)nn2)(COCc2cn(C[C@H]3NC[C@@H](O)[C@H]3O)nn2)COCc2cn(C[C@H]3NC[C@@H](O)[C@H]3O)nn2)cc(C(=O)NC(COCc2cn(C[C@H]3NC[C@@H](O)[C@H]3O)nn2)(COCc2cn(C[C@H]3NC[C@@H](O)[C@H]3O)nn2)COCc2cn(C[C@H]3NC[C@@H](O)[C@H]3O)nn2)c1
3 | – | < 50% | 142 µM | O[C@@H]1[C@H](O)CN[C@@H]1Cn1cc(CCCn2cc(COCC(COCc3cn(CCCc4cn(C[C@H]5NC[C@@H](O)[C@H]5O)nn4)nn3)(COCc3cn(CCCc4cn(C[C@H]5NC[C@@H](O)[C@H]5O)nn4)nn3)COCc3cn(CCCc4cn(C[C@H]5NC[C@@H](O)[C@H]5O)nn4)nn3)nn2)nn1
4 | < 50% | < 50% | – | O=C(NC(COCc1cn(C[C@@H]2NC[C@@H](O)[C@H]2O)nn1)(COCc1cn(C[C@@H]2NC[C@@H](O)[C@H]2O)nn1)COCc1cn(C[C@@H]2NC[C@@H](O)[C@H]2O)nn1)c1cc(C(=O)NC(COCc2cn(C[C@@H]3NC[C@@H](O)[C@H]3O)nn2)(COCc2cn(C[C@@H]3NC[C@@H](O)[C@H]3O)nn2)COCc2cn(C[C@@H]3NC[C@@H](O)[C@H]3O)nn2)cc(C(=O)NC(COCc2cn(C[C@@H]3NC[C@@H](O)[C@H]3O)nn2)(COCc2cn(C[C@@H]3NC[C@@H](O)[C@H]3O)nn2)COCc2cn(C[C@@H]3NC[C@@H](O)[C@H]3O)nn2)c1
5 | < 50% | < 50% | – | O=C(CCCCC(=O)NC(COCc1cn(C[C@@H]2NC[C@@H](O)[C@H]2O)nn1)(COCc1cn(C[C@@H]2NC[C@@H](O)[C@H]2O)nn1)COCc1cn(C[C@@H]2NC[C@@H](O)[C@H]2O)nn1)NC(COCc1cn(C[C@@H]2NC[C@@H](O)[C@H]2O)nn1)(COCc1cn(C[C@@H]2NC[C@@H](O)[C@H]2O)nn1)COCc1cn(C[C@@H]2NC[C@@H](O)[C@H]2O)nn1

Continued, compound first:

Row | SMILES | inhibition [1] | inhibition [2] | IC50 (Alpha-galactosidase A)
6 | COCc1cn(C[C@@H]2NC[C@@H](O)[C@H]2O)nn1 | < 50% | < 50% | –
7 | COCc1cn(C[C@H]2NC[C@@H](O)[C@H]2O)nn1 | < 50% | < 50% | –
8 | NC(COCc1cn(C[C@H]2NC[C@@H](O)[C@H]2O)nn1)(COCc1cn(C[C@H]2NC[C@@H](O)[C@H]2O)nn1)COCc1cn(C[C@H]2NC[C@@H](O)[C@H]2O)nn1 | < 50% | < 50% | –
9 | NC(COCc1cn(CCCc2cn(C[C@H]3NC[C@@H](O)[C@H]3O)nn2)nn1)(COCc1cn(CCCc2cn(C[C@H]3NC[C@@H](O)[C@H]3O)nn2)nn1)COCc1cn(CCCc2cn(C[C@H]3NC[C@@H](O)[C@H]3O)nn2)nn1 | – | < 50% | 309 µM
10 | NC(COCc1cn(C[C@@H]2NC[C@@H](O)[C@H]2O)nn1)(COCc1cn(C[C@@H]2NC[C@@H](O)[C@H]2O)nn1)COCc1cn(C[C@@H]2NC[C@@H](O)[C@H]2O)nn1 | < 50% | < 50% | –
11 | CCCc1cn(C[C@H]2NC[C@@H](O)[C@H]2O)nn1 | < 50% | < 50% | –
